How the values were obtained:
PPARγ lysine acetylation = assay: Cell-based PPARγ acetylation assay; set-up: species or system mouse; conditions: cultured adipocytes
Protocol: One day after achieving 100% confluence, 3T3-L1 cells were induced differentiation with 0.5 mM IBMX, 1 µm dexamethasone and 10 μg/mL insulin in DMEM containing 10% FBS for 2 days and maintained differentiation in DMEM supplemented with 10 μg/mL insulin and 10% FBS for 6 days. The medium was changed every 2 days. […] Cells were harvested and lysed in RIPA buffer supplemented with 1X cOmplete™, EDTA-free Protease Inhibitor Cocktail (cat. no. 04693132001, Roche) and 1X PhosSTOP™ (cat. no. 4906845001, Roche). The protein concentrations of cell lysates were measured by Bradford reagent (cat. no. BP500-0006, Bio-Rad). The protein samples were performed immunoprecipitation with magnetic beads (Protein G Mag Sepharose™, Cytiva). Briefly, 200 μg of protein samples were incubated in 500 μl of PBS buffer containing 1 μg of anti-PPARγ antibody or 1 μg of anti-rabbit IgG antibody with gentle rotation at 4 °C overnight. On the next day, PBS-washed beads were incubated with overnight mixture of protein sample and antibody at 4 °C for 1 h with gentle rotation. Then the beads were washed three times with 1000 μl of PBS and harvested with centrifugation at 4 °C and 10,000 × g for 5 min. […] Acetylation level of PPARγ was analyzed using Image J software and normalized against PPARγ.

PTGR2 = assay: 15-keto-PGE2 content in fat tissue after BPRPT0245 dosing; assay type: in vivo, mouse; conditions: BPRPT0245 100 mg/kg/day oral, 4 days, 2 h after last dose, vs vehicle
Protocol: Liquid nitrogen-frozen tissue was grinded using pestle and mortar. Approximately 500 mg of tissue powders were immersed with 400 μL of the upper layer of acetonitrile (ACN)/hexane mixture supplemented with 0.5% formic acid, and then homogenized with ceramic beads by MagNA Lyser (Roche, USA). The homogenate was then added with 600 μL ACN containing 13,14 dihydro-15-keto-PGE2-d4 (cat no. 10007978, Cayman Chemical, Ann Arbor, MI) in 1:20,000 dilution and homogenized, followed by the addition of 600 μL ddH2O. The mixture was centrifuged at 12,000 × g for 10 min at 0 °C. The lower layer was transferred to a new tube. A C-18 solid-phase extraction (SPE) cartridge (Cat no. 400020, Cayman Chemical) was sequentially activated with 20 mL methanol and 20 mL ddH2O. The protein sample was loaded into activated SPE cartridge. Once the sample passed the cartridge, the cartridge was washed with 5 mL 15% methanol and then 5 mL ddH2O. Finally, the sample was eluted with 10 mL HPLC-degree methanol (Methanol Chromasolv LC-MS, Fluka) and aliquoted into new 2-mL tubes. […]
The HPLC system consisted of an Agilent 1200 series LC System with BinPump (Waldbronn, Germany) and an Agilent Eclipse XDB C8 (3.0 × 150 mm, 5 µm) interfaced to a Sciex API 4000 tandem mass spectrometer. […] The ions monitored for BPRPT0245 were m/z 447/189 and m/z 357/195, respectively. […]

Row | Structure (SMILES) | acetylation of the PPARγ LBD (PPARγ lysine acetylation) | increase of 15-keto-PGE2 content in inguinal fat (PTGR2) | increase of 15-keto-PGE2 content in perigonadal fat (PTGR2; trend)
1 | CCCCCC(=O)/C=C/[C@H]1[C@H](O)CC(=O)[C@@H]1C/C=C\CCCC(=O)O [15-keto-PGE2, 15-keto-prostaglandin E2] | no altered acetylation of the PPARγ LBD |  | 
2 | Cc1[nH]c2nc(C(C)N3CCN(c4ccccc4)CC3)nn2c(=O)c1Cc1ccc(F)cc1 (stereo not drawn) [BPRPT0245] |  | ~ 1.32 fold | ~ 1.34 fold
